Results published in patent publication US10301284B2, “Therapeutic inhibitory compounds” (LifeSci Pharmaceuticals, Inc., priority 2016, dated 2019).
Read-outs that look alike come from different tables or passages of the source.

Legend:
human Plasma Kallikrein [1] = molecular target: T1, human Plasma Kallikrein (Homo sapiens (Human), UniProt P03952); assay: In vitro enzyme inhibition of human plasma kallikrein (Pro-Phe-Arg-AMC cleavage); format: biochemical
Protocol: (§1) The ability of the compounds disclosed herein to inhibit human plasma kallikrein activity was quantified according to the procedures below.
A 10 mM solution of the test compound was made in DMSO. This solution was serially diluted 1:5 in DMSO to yield 2000, 400, 80, 16, 3.2, 0.64, 0.128, 0.0256 and 0.00512 μM compound test solutions. A control tube containing only DMSO is included. 16 μL of each compound test solution was combined with 384 μL of assay buffer (50 mM Tris-HCl pH 7.5, 150 mM NaCl, 0.01% Triton X-100) to yield a “4× test compound buffer stock”.
Separately, a 40 nM solution of human Plasma Kallikrein (Abcam) and a 93.6 μM solution Pro-Phe-Arg-AMC (Bachem) were made using assay buffer. These solutions are hereby referred to as 4×hPK and 2×PFR-AMC, respectively.
60 μL of each 4× test compound buffer stock was combined with 60 μL of 4×hPK to yield 120 μL of “2× test compound buffer stock/2×hPK”. 50 μL was removed from this mixture and placed into duplicate wells on a Microfluor 1Black U-bottom microtiter plate (Thermo Scientific). This plate was incubated for 5 minutes at 37° C. To each well, 50 μL of pre-warmed 2×PFR-AMC was added to start the enzymatic reaction. Cleavage of PFR-AMC was monitored in a Biotek Synergy H4 reader set at 37° C. Readings are taken every 43 seconds for 1 hour. The highest mean velocity over 20 reads (˜15 minutes) is used to calculate the IC50. The IC50 is calculated using the Gen5 (Biotek Instruments).
The ability of the compounds listed in Table 2 to inhibit human plasma kallikrein activity was determined.

human Plasma Kallikrein [2] = molecular target: T1, human Plasma Kallikrein; assay: Human whole blood kallikrein inhibition (ellagic acid-activated human plasma, Z-FR-2-AMC substrate); format: biochemical; settings: human plasma activated with ellagic acid, Z-FR-2-AMC 40 μM, 37° C.; read-out: HWB EC50
Protocol: as §1
All dilutions were prepared in an assay buffer comprising 50 mM Tris-HCl pH 7.2, 150 mM NaCl, and 0.01% Triton X-100.
Human plasma was thawed on ice and centrifuged for 15 min at 4° C. to remove platelets. A 1 mM stock solution of ellagic acid was diluted to 8 μM and mixed with human plasma, after removing platelets, at a ratio of 1:0.8. The mixture of human plasma and ellagic acid was further diluted 32-fold in the assay buffer, to yield the final mixture for use in the inhibition assay.
A 22.5 μL volume of the final mixture of human plasma and ellagic acid was added to a 96-well microwell plate and the plate was incubated for 15 min at 37° C.
The test compound solution was prepared to provide final concentrations of 20 μM, 5 μM, 1.25 μM, 312.5 nM, 78.125 nM, 19.531 nM, 4.883 nM, 1.221 nM, 0.305 nM, and 0.076 nM. Each test compound concentration was tested in duplicates.
In addition to the inhibitor control and test wells, the 96 well assay plate included positive control wells which contain the mixture of human plasma and ellagic acid without test compounds, and background wells which contain neither the mixture of human plasma and ellagic acid nor the test compounds. The total volume of liquid in positive control and background wells was brought up to 35 μL using the assay buffer.
The assay plate containing test compounds mixed with human plasma and ellagic acid and appropriate controls was incubated at 37° C. for 5 min. A 10 mM stock solution of substrate Z-FR-2-AMC was diluted to 133.2 μM in the assay buffer, and 15 μL of the diluted substrate was added to each well, to yield a final substrate concentration of 40 μM in each well. The reagents were mixed by shaking the plate gently for 30 sec.
The enzyme reaction was quantified by immediate kinetic reading of the assay plate using excitation/emission wavelengths of 330 nm/440 nm respectively. Fluorescence intensity was recorded for 60 min, using a time interval of 43 sec.
The inhibition activity of the test compounds were evaluated using the IC50 values, calculated according to the dose-response curve of the test compounds, fitted using the “log(inhibitor)−response(variable slope)” equation in GraphPadPrism software (GraphPad Software, Inc.).
The percentage inhibition (EC50) was calculated using the following equation:
[formula] where, Mean(BG) is the average value of the fluorescence intensity of the background wells and Mean(PC) is the average value of the fluorescence intensity of the positive control wells.

[3] = Pharmacokinetic evaluation, oral exposure in rats; format: in vivo; settings: rat; male Sprague-Dawley rats, single oral dose 10 mg/kg via oral gavage, plasma; read-out: AUC
Protocol: Pharmacokinetic studies of select compounds were performed to assess the pharmacokinetic properties. Male Sprague-Dawley rats were administered a single oral dose of the test compound at 10 mg/kg (dose concentration: 2 mg/mL, dose volume: 5 ml/kg) via oral gavage. Blood samples were collected via jugular vein at pre-dose, post-dose 5 min, 15 min, 30 min, 1 h, 2 h, 4 h, 6 h, 8 h, 10 h and 24 h, and centrifuged (8000 rpm for 6 minutes at 2-8° C.). The resulting plasma fractions were analyzed by LC/MS/MS to determine the concentration of the test compound.

[4] = human plasma kallikrein, PFR-AMC substrate, 37° C., read-out: hPK IC50

T1 sequence (P03952 391-638 limits assumed): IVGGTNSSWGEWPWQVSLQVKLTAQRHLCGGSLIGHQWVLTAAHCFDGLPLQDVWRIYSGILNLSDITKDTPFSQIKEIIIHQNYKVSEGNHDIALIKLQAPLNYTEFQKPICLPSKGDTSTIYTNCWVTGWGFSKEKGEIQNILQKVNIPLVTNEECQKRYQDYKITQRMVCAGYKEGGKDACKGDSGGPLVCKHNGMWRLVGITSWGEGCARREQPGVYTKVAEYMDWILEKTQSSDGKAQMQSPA
T1 sequence (P03952 20-390 partner limits assumed): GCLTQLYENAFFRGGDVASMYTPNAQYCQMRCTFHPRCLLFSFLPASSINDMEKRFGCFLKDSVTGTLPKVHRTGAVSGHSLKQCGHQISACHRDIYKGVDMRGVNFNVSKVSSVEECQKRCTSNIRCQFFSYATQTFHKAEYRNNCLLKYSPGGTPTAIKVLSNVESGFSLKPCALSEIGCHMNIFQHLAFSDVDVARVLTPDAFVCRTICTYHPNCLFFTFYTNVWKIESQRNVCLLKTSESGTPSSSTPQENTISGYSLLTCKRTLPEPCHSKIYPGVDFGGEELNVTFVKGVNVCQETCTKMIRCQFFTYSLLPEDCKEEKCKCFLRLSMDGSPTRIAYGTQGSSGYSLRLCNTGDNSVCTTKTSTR

Row | Compound | IC50 (human Plasma Kallikrein [1]; [4]) [nM] | other results
1 | Cc1cc(N)nc(C)c1CNC(=O)c1cn(Cc2ccc3ncc(Cl)cc3c2)c2ccc(=O)[nH]c12 [Example 126, N-((6-amino-2,4-dimethylpyridin-3-yl)methyl)-1-((3-chloroquinolin-6-yl)methyl)-5-oxo-4,5-dihydro-1H-pyrrolo[3,2-b]pyridine-3-carboxamide] | < 100 | EC50 (human Plasma Kallikrein [2]): < 100 nM
2 | Cc1cc(N)nc(C)c1CNC(=O)c1ccn(Cc2ccc3ncc(Cl)cc3c2)n1 [Example 1, N-((6-amino-2,4-dimethylpyridin-3-yl)methyl)-1-((3-chloroquinolin-6-yl)methyl)-1H-pyrazole-3-carboxamide] | – | EC50 (human Plasma Kallikrein [2]): < 100 nM; AUC [3]: 100 to 1000 ng·h/mL
3 | Cc1nc(N)ccc1CNC(=O)c1cn(Cc2ccc3ncc(Cl)cc3c2)c2ccc(=O)[nH]c12 [Example 125, N-((6-amino-2-methylpyridin-3-yl)methyl)-1-((3-chloroquinolin-6-yl)methyl)-5-oxo-4,5-dihydro-1H-pyrrolo[3,2-b]pyridine-3-carboxamide] | < 100 | EC50 (human Plasma Kallikrein [2]): < 100 nM
4 | Cc1cc(N)nc(C)c1CNC(=O)c1oc(Cc2ccc3ncc(Cl)cc3c2)nc1C#N [Example 87, N-((6-amino-2,4-dimethylpyridin-3-yl)methyl)-2-((3-chloroquinolin-6-yl)methyl)-4-cyanooxazole-5-carboxamide] | < 100 | –
5 | Cc1nc(N)ccc1CNC(=O)c1cn(Cc2ccc3ncc(Cl)cc3c2)nc1C#N [Example 77, N-((6-amino-2-methylpyridin-3-yl)methyl)-1-((3-chloroquinolin-6-yl)methyl)-3-cyano-1H-pyrazole-4-carboxamide] | < 100 | –
6 | COc1ncnc2c1c(C(=O)NCc1c(C)cc(N)nc1C)cn2Cc1ccc2ncc(Cl)cc2c1 [Example 131, N-((6-amino-2,4-dimethylpyridin-3-yl)methyl)-7-((3-chloroquinolin-6-yl)methyl)-4-methoxy-7H-pyrrolo[2,3-d]pyrimidine-5-carboxamide] | – | IC50 (human Plasma Kallikrein [1]): 100 to 1000 nM
7 | Cc1cc(N)nc(C)c1CNC(=O)c1cnn(Cc2ccc3ncc(Cl)cc3c2)c1C#N [Example 40, N-((6-amino-2,4-dimethylpyridin-3-yl)methyl)-1-((3-chloroquinolin-6-yl)methyl)-5-cyano-1H-pyrazole-4-carboxamide] | 1000 to 10000 | –
8 | Cc1cc(N)nc(C)c1CNC(=O)c1ncc(Cc2ccc3ncc(Cl)cc3c2)[nH]1 [Example 41, N-((6-amino-2,4-dimethylpyridin-3-yl)methyl)-5-((3-chloroquinolin-6-yl)methyl)-1H-imidazole-2-carboxamide] | 100 to 1000 | –
9 | N#Cc1nn(Cc2cc(F)c3ncc(Cl)cc3c2)cc1C(=O)NCc1cc2c(Cl)c[nH]c2cc1F [Example 53, N-((3-chloro-6-fluoro-1H-indol-5-yl)methyl)-1-((3-chloro-8-fluoroquinolin-6-yl)methyl)-3-cyano-1H-pyrazole-4-carboxamide] | < 100 | –
10 | Cc1cc(N)nc(C)c1CNC(=O)c1nn(Cc2ccc3ncc(Cl)cc3c2)c2c[nH]c(=O)cc12 [Example 124, N-((6-amino-2,4-dimethylpyridin-3-yl)methyl)-1-((3-chloroquinolin-6-yl)methyl)-5-oxo-5,6-dihydro-1H-pyrazolo[3,4-c]pyridine-3-carboxamide] | 100 to 1000 | –
11 | Cc1cc(N)nc(C)c1CNC(=O)c1cn(Cc2ccc3ncc(Cl)cc3c2)c2ncnc(N)c12 [Example 34, 4-amino-7-(3-chloro-quinolin-6-ylmethyl)-7H-pyrrolo[2,3-d]pyrimidine-5-carboxylic acid (6-amino-2,4-dimethyl-pyridin-3-ylmethyl)-amide] | < 100 | –
12 | Cc1cc(N)nc(C)c1CNC(=O)c1cnc(C(=O)c2ccc3ncc(Cl)cc3c2)o1 [Example 80, N-((6-amino-2,4-dimethylpyridin-3-yl)methyl)-2-(3-chloroquinoline-6-carbonyl)oxazole-5-carboxamide] | > 10000 | –
13 | Cc1cc(N)nc(C)c1CNC(=O)c1cnc(Cc2ccc3ncc(Cl)cc3c2)o1 [Example 114, N-((6-amino-2,4-dimethylpyridin-3-yl)methyl)-2-((3-chloroquinolin-6-yl)methyl)oxazole-5-carboxamide] | – | EC50 (human Plasma Kallikrein [2]): < 100 nM; AUC [3]: 1000 to 10000 ng·h/mL
14 | Cc1cc(N)nc(C)c1CNC(=O)c1nc(C#N)n(Cc2ccc3ncc(Cl)cc3c2)n1 [Example 101, N-((6-amino-2,4-dimethylpyridin-3-yl)methyl)-1-((3-chloroquinolin-6-yl)methyl)-5-cyano-1H-1,2,4-triazole-3-carboxamide] | > 10000 | –
15 | N#Cc1nn(Cc2cc(F)c3ncc(Cl)cc3c2)cc1C(=O)NCc1cnc2[nH]cc(Cl)c2c1 [Example 56, N-((3-chloro-1H-pyrrolo[2,3-b]pyridin-5-yl)methyl)-1-((3-chloro-8-fluoroquinolin-6-yl)methyl)-3-cyano-1H-pyrazole-4-carboxamide] | < 100 | –
16 | Cc1cc(N)nc(C)c1CNC(=O)c1nnc(Cc2cc(C(C)(C)O)c3ncc(Cl)cc3c2)o1 [Example 86, N-((6-amino-2,4-dimethylpyridin-3-yl)methyl)-5-((3-chloro-8-(2-hydroxypropan-2-yl)quinolin-6-yl)methyl)-1,3,4-oxadiazole-2-carboxamide] | < 100 | –
17 | Nc1nccc2cc(CNC(=O)c3nnc(Cc4ccc5ncc(Cl)cc5c4)o3)ccc12 [Example 46, N-((1-aminoisoquinolin-6-yl)methyl)-5-((3-chloroquinolin-6-yl)methyl)-1,3,4-oxadiazole-2-carboxamide] | 100 to 1000 | –
18 | Cc1cc(N)nc(C)c1CNC(=O)c1cnc(Cc2ccc3ncc(Cl)cc3c2)o1 [Example 89, N-((6-amino-2,4-dimethylpyridin-3-yl)methyl)-2-((3-chloroquinolin-6-yl)methyl)oxazole-5-carboxamide] | < 100 | –
19 | CCOC(=O)c1nc(C(=O)NCc2c(C)cc(N)nc2C)nn1Cc1ccc2ncc(Cl)cc2c1 [Example 142, ethyl 3-(((6-amino-2,4-dimethylpyridin-3-yl)methyl)carbamoyl)-1-((3-chloroquinolin-6-yl)methyl)-1H-1,2,4-triazole-5-carboxylate] | > 10000 | –
20 | Cc1cc(N)nc(C)c1CNC(=O)c1nc(Br)n(Cc2ccc3ncc(Cl)cc3c2)n1 [Example 100, N-((6-amino-2,4-dimethylpyridin-3-yl)methyl)-5-bromo-1-((3-chloroquinolin-6-yl)methyl)-1H-1,2,4-triazole-3-carboxamide] | < 100 | –
21 | Cc1cc(N)nc(C)c1CNC(=O)c1cn(Cc2ccc3ncc(Cl)cc3c2)c2nc[nH]c(=O)c12 [Example 132, N-((6-amino-2,4-dimethylpyridin-3-yl)methyl)-7-((3-chloroquinolin-6-yl)methyl)-4-oxo-4,7-dihydro-3H-pyrrolo[2,3-d]pyrimidine-5-carboxamide] | > 10000 | –
22 | Cc1nc(N)ccc1CNC(=O)c1cn(Cc2ccc3ncc(Cl)cc3c2)nc1C [Example 85, N-((6-amino-2-methylpyridin-3-yl)methyl)-1-((3-chloroquinolin-6-yl)methyl)-3-methyl-1H-pyrazole-4-carboxamide] | < 100 | –
